According to US11046657B2, “Pyrimidinone derivatives and uses thereof to neutralize the biological activity of chemokines” (Centre National de la Recherche Scientifique (CNRS), priority 2016, dated 2021):

Key:
[1] = tested on: Balb/c mice sensitized to ovalbumin; assay: 8-day murine model of allergic eosinophilic airway inflammation; format: in vivo, mouse; settings: for IC50 on eosinophil recruitment: intranasal, 2 h before each challenge, in PBS/Cdx, bronchoalveolar lavage 24 h after last challenge
Protocol: In vivo dose-response effect of a topical treatment with chalcone-4 and compound (1) of formula (I) in an 8-day mouse model of allergic eosinophilic airway inflammation. Balb/c mice were sensitized to ovalbumin (OVA, 50 μg) in the presence of 2 mg alum (IP. injection on days 0, 1 and 2) and challenged with OVA (10 μg) or saline (IN.) on days 6, 7 and 8. Increasing doses of chalcone-4 (gray line) or compound (1) (black line) solubilized in 10% hydroxypropyl-B-cyclodextrine (Cdx) were administered by the intranasal route 2 h before each challenge. Bronchoalveolar lavage was performed 24 h after the last challenge, and inflammatory cells including eosinophils counted. The percentage of inhibition of eosinophil recruitment is shown. Data points are means and bars are S.E.M. values of n=6 determinations.
The in vivo activity of compound (1) was tested in the 8-day murine model of allergic eosinophilic airway inflammation previously described^13.
Briefly, Balb/c mice were sensitized to ovalbumin (OVA) and challenged 3 times with OVA or saline at 24 h interval. Treatments with each compound (300 nmol/kg in 10% PBS/Cdx) were administered by the intranasal route 2 h before each challenge. Bronchoalveolar lavage was performed 24 h after the last challenge, and eosinophil, macrophage, neutrophil and lymphocyte numbers quantified.
Using the same protocol, the dose-response of compound (1) and chalcone-4 was evaluated on eosinophil recruitment after intranasal administration (FIG. 1).

Stability after 24 h = format: physicochemical; settings: monitored after 24 h
Protocol: Their solubility in assay media was evaluated. (2-Hydroxypropyl)-o-cyclodextrin (Cdx) was used as excipient because of its low toxicity and its capacity to increase bioavailability. […] The compound stability was evaluated in PBS only and in PBS/Cdx.

CXCR4-CXCL12 binding = target: T1, CXCR4-CXCL12 binding (Homo sapiens, UniProt P48061); assay: Inhibition of CXCL12-TR binding to CXCR4-GFP (FRET); settings: 10 μM
T1 construct: expressed in transfected cells
Protocol: Study of the changes of CXCR4-CXCL12 binding was achieved by the energy transfer technique^10,11.
Binding of Texas red-labelled CXCL12 with CXCR4-GFP fused receptor^11 induces fluorescence resonance energy transfer (FRET), which can be monitored by the reduction of GFP fluorescence emission. The characterization of CXCL12 neutraligands was evaluated in two conditions, differing by the sequence of addition of molecules. Reduction of GFP fluorescence emission was more important when neutraligands were preincubated (30 min) […] prior to the addition to cells.
The CXCR4 antagonist, T134 (20 μM) was used as a control in both incubation protocols. Data obtained were consistent with a binding to the chemokine and not to its receptor. Consequently, all selected compounds are indeed CXCL12 chemokine neutraligands and behave as chalcone-4. The neutralizing properties of the compounds are thus confirmed.

SuHx Wistar rats = assay: SU-5416/Hypoxia rat model of pulmonary hypertension; format: in vivo; settings: 100 mg/kg/day i.p.; for Pulmonary vascular remodeling: H&E and alpha-SMA staining of lung sections; for Total pulmonary vascular resistance (TPVR): curative protocol, vs vehicle-treated SuHx rats
Protocol: FIG. 6A: In vivo effect of chalcone-4 and compound (1) in the SU-5416 (20 mg/kg)/Hypoxia (SuHx) rat model of PH on total pulmonary vascular resistance, cardiac output and right ventricular hypertrophy. Male Wistar rats (100 g upon arrival in the laboratory; Janvier Labs, France) served as experimental subjects. SU-5416 (20 mg/kg) was injected subcutaneously and the rats were placed in normobaric hypoxia (10% FiO2) for 3 weeks for PH to develop, and were then left for 2 weeks in normoxia. Rats were treated either with chalcone-4 or compound (1) at a dose of 100 mg/kg i.p. as compared with vehicle-treated SuHx rats. In addition, a group of healthy rats with no PH were used as the control group (CTR). The total pulmonary vascular resistance (TPVR), cardiac output (CO), right ventricular hypertrophy (RVH) assessed by the Fulton index [right/(left+septum) ventricular weight] were obtained in CTR and SuHx rats treated with chalcone-4 and compound (1). The bar graph represents means SEM. *** p-value <0.001, **** p-value <0.0001 versus CTR rats. # p-value <0.05,### p-value <0.001 versus vehicle-treated SuHx rats.
The activity of compound (1) vs chalcone-4 was evaluated in an animal model of pulmonary hypertension (PH) (by convention, animal models are still referred to as having PH rather than PAH): the SU-5416 (20 mg/Kg)/Hypoxia rat model. Chalcone-4 and compound (1) (100 mg/kg/day) were prepared in carboxymethylcellulose (CMC 1% in saline) and administered I.P. Rats were treated for 3 weeks in a curative protocol, and were then left for 2 weeks in normoxia. An additional group of healthy rats with no PH was used as the control group (CTR).
PH was induced by a single subcutaneous injection of SU5416 (20 mg/kg) in Wistar rats, followed by a 3-week exposure to chronic hypoxia (10% FiO2). Right ventricular structure and function was assessed by echocardiography using the GE Vivid 9 ultrasound. Before treatment begins, echocardiography measurements of each rat have been performed to validate the presence of PH in animals (acceleration time/ejection time). Then, the rats were randomized by numbering the animals from 1 to 4 in each cage at the beginning of the study, and then looking at a random number table. Each rat has been treated by intraperitoneal administration. At the end of the treatment period, a right heart catheterization (RHC) was performed to determine the PH severity and the cardiac function.
Animals were anesthetized with isoflurane. A polyvinyl catheter was introduced into the right jugular vein and pushed through the right ventricle into the pulmonary artery. Cardiac output in rats was measured using the thermodilution method.
After measurement of hemodynamic parameters, the thorax was opened and the left lung immediately removed and frozen. The right lung was fixed in the distended state with formalin buffer. The right ventricular hypertrophy assessed by the Fulton index [weight ratio of right ventricle (RV) and (left ventricle (LV)+septum)] and the percentage of wall thickness [(2× medial wall thickness/external diameter)×100] and of muscularized vessels were determined as previously described^21.
Histological sections were stained with hematoxylin and eosin, and immunohistochemistry for alpha-smooth muscle actin was performed as previously described^1′. Images were taken with a microscope Nikon Eclipse 80i and NIS-Elements BR 2.30 software.

[2] = vs SuHx rats treated with vehicle or chalcone-4

T1 sequence (P48061 22-89 limits assumed): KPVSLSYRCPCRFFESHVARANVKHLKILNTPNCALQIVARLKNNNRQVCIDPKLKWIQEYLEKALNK

Row | Stability PBS/Cdx (Stability after 24 h) [%] | Stability PBS (Stability after 24 h) [%] | inhibition at 10 µM (CXCR4-CXCL12 binding; Table 3) [%] | inhibition at 10 µM (CXCR4-CXCL12 binding; Table 2) [%] | inhibition at 10 µM (CXCR4-CXCL12 binding; Table 4) [%] | SMILES | IC50 on eosinophil recruitment [1] | Pulmonary vascular remodeling (SuHx Wistar rats) | Total pulmonary vascular resistance (TPVR) (SuHx Wistar rats) | Recruitment of eosinophils ([1]; 300 nmol/kg, intranasal route, n=6) | Cardiac output (SuHx Wistar rats; [2]) | Fulton index (right ventricular hypertrophy) (SuHx Wistar rats; [2])
1 | 100 | 100 | 96 ± 2 |  |  | COc1cc(/C=C/C(=O)c2ccc(Cl)cc2)ccc1O [Chalcone-4, (E)-1-(4-Chlorophenyl)-3-(4-hydroxy-3-methoxyphenyl)prop-2-en-1-one, reference compound] | higher than 500 nmol/kg | substantially attenuated the pulmonary vascular remodeling | substantial decrease |  |  | 
2 | 100 | 100 | 76 ± 5 | 92 ± 5 | 76 ± 5 | COc1cc(-c2cc(-c3ccc(Cl)cc3)nc(=O)[nH]2)ccc1O [compound (1), 4-(4-Chlorophenyl)-6-(4-hydroxy-3-methoxyphenyl)pyrimidin-2(1H)-one] | 300 nmol/kg | substantially attenuated the pulmonary vascular remodeling | substantial decrease | inhibits the recruitment of eosinophils | substantial increase | significant decrease
